Common to all, as to format: functional, Homo sapiens
The subject of assay [1] is DU-145. Kind of assay: Tested for in vitro activity against DU 145 cells at PTX dilution factor 1:50, expressed as percentage of cellular survival as a function of drug dilution.
Assay [2] has as its system DU-145. Nature of the assay: Tested for in vitro activity against DU 145 cells at PTX dilution factor 1:500, expressed as percentage of cellular survival as a function of drug dilution.
Assay [3] relates to DU-145. Kind of assay: Tested for in vitro activity against DU 145 cells at PTX dilution factor 1:100, expressed as percentage of cellular survival as a function of drug dilution.
In assay [4] the test system is DU-145. Kind of assay: Tested for in vitro activity against DU 145 cells at PTX dilution factor 1:1000, expressed as percentage of cellular survival as a function of drug dilution.

Regarding `COCC1O[C@H]2OC3C(COC)O[C@@H](OC4C(COC)O[C@@H](OC5C(COC)O[C@@H](OC6C(COC)O[C@@H](OC7C(COC)O[C@@H](OC8C(COC)O[C@@H](OC1[C@@H](O)[C@@H]2OC)[C@@H](OC)[C@H]8O)[C@@H](OC)[C@H]7O)[C@@H](O)[C@H]6OC)[C@@H](OC)[C@H]5O)[C@@H](OC)[C@H]4O)[C@@H](OC)[C@H]3O` (stereo partly drawn), the Survival in the assay with DU-145 [1] was 88.9%; with DU-145 [2] it was 90.2%; in the assay on DU-145 [3] it was 90.6%; in the assay with DU-145 [4] it was 91.5%.
The matching figures for `CC(=O)O[C@H]1C(=O)[C@@]2(C)C([C@H](OC(=O)c3ccccc3)[C@]3(O)C[C@H](OC(=O)[C@H](O)[C@@H](NC(=O)c4ccccc4)c4ccccc4)C(C)=C1C3(C)C)[C@]1(OC(C)=O)CO[C@@H]1C[C@@H]2O.COCC1O[C@H]2OC3C(COC)O[C@@H](OC4C(COC)O[C@@H](OC5C(COC)O[C@@H](OC6C(COC)O[C@@H](OC7C(COC)O[C@@H](OC8C(COC)O[C@@H](OC1[C@@H](OC)[C@@H]2OC)[C@@H](OC)[C@H]8OC)[C@@H](OC)[C@H]7OC)[C@@H](OC)[C@H]6OC)[C@@H](OC)[C@H]5OC)[C@@H](OC)[C@H]4OC)[C@@H](OC)[C@H]3OC` (stereo partly drawn): 43.2%, 68.7%, 61.3% and 69.3%.
The corresponding values for `COCC1O[C@H]2OC3C(COC)O[C@@H](OC4C(COC)O[C@@H](OC5C(COC)O[C@@H](OC6C(COC)O[C@@H](OC7C(COC)O[C@@H](OC8C(COC)O[C@@H](OC1[C@@H](OC)[C@@H]2OC)[C@@H](OC)[C@H]8OC)[C@@H](OC)[C@H]7OC)[C@@H](OC)[C@H]6OC)[C@@H](OC)[C@H]5OC)[C@@H](OC)[C@H]4OC)[C@@H](OC)[C@H]3OC` (stereo partly drawn) are 79.7%, 87%, 85.5% and 90.1%.
The corresponding values for `CC(=O)O[C@H]1C(=O)[C@@]2(C)C([C@H](OC(=O)c3ccccc3)[C@]3(O)C[C@H](OC(=O)[C@H](O)[C@@H](NC(=O)c4ccccc4)c4ccccc4)C(C)=C1C3(C)C)[C@]1(OC(C)=O)CO[C@@H]1C[C@@H]2O.COCC1O[C@H]2OC3C(COC)O[C@@H](OC4C(COC)O[C@@H](OC5C(COC)O[C@@H](OC6C(COC)O[C@@H](OC7C(COC)O[C@@H](OC8C(COC)O[C@@H](OC1[C@@H](O)[C@@H]2OC)[C@@H](OC)[C@H]8O)[C@@H](OC)[C@H]7O)[C@@H](O)[C@H]6OC)[C@@H](OC)[C@H]5O)[C@@H](OC)[C@H]4O)[C@@H](OC)[C@H]3O` (stereo partly drawn) are 35.2%, 51.1%, 46.3% and 61.3%.
In the case of `CC(=O)O[C@H]1C(=O)[C@@]2(C)C([C@H](OC(=O)c3ccccc3)[C@]3(O)C[C@H](OC(=O)[C@H](O)[C@@H](NC(=O)c4ccccc4)c4ccccc4)C(C)=C1C3(C)C)[C@]1(OC(C)=O)CO[C@@H]1C[C@@H]2O.OCC1O[C@H]2OC3C(CO)O[C@@H](OC4C(CO)O[C@@H](OC5C(CO)O[C@@H](OC6C(CO)O[C@@H](OC7C(CO)O[C@@H](OC8C(CO)O[C@@H](OC1[C@@H](O)[C@@H]2O)[C@@H](O)[C@H]8O)[C@@H](O)[C@H]7O)[C@@H](O)[C@H]6O)[C@@H](O)[C@H]5O)[C@@H](O)[C@H]4O)[C@@H](O)[C@H]3O` (stereo partly drawn), the Survival in the assay with DU-145 [1] was 12.2%; with DU-145 [2] it was 23.1%; in the assay on DU-145 [3], 22.3%; in the assay on DU-145 [4] it was 24.2%.
The corresponding values for `OC[C@H]1O[C@@H]2O[C@H]3[C@H](O)[C@@H](O)[C@@H](O[C@H]4[C@H](O)[C@@H](O)[C@@H](O[C@H]5[C@H](O)[C@@H](O)[C@@H](O[C@H]6[C@H](O)[C@@H](O)[C@@H](O[C@H]7[C@H](O)[C@@H](O)[C@@H](O[C@H]8[C@H](O)[C@@H](O)[C@@H](O[C@H]1[C@H](O)[C@H]2O)O[C@@H]8CO)O[C@@H]7CO)O[C@@H]6CO)O[C@@H]5CO)O[C@@H]4CO)O[C@@H]3CO` [BETADEX] are 96.4%, 96.4%, 96.6% and 96.8%.
In the case of `CC(=O)O[C@H]1C(=O)[C@@]2(C)[C@H]([C@H](OC(=O)c3ccccc3)[C@]3(O)C[C@H](OC(=O)[C@H](O)[C@@H](NC(=O)c4ccccc4)c4ccccc4)C(C)=C1C3(C)C)[C@]1(OC(C)=O)CO[C@@H]1C[C@@H]2O` [PACLITAXEL], the Survival came out at 11.6% with DU-145 [1], 43.3% in the assay on DU-145 [2], 12.1% with DU-145 [3] and 46% in the assay on DU-145 [4].
